According to patent US20250108036A1, “COMPOSITIONS FOR REMOVING SENESCENT CELLS AND USES THEREOF” (LIFECEUTIX CO., LTD., priority 2021, published 2025):

Columns and labels:
HMGN1 = HMGN1 ELISA in culture medium of A549 cancer cells (Example 12, Table 66); assay type: cell-based, human; settings: Homo sapiens, A549, doxorubicin-induced senescent A549 cells, test compound 30 μM, ELISA, DMSO = 100; read-out: HMGN1 (amount of HMGN1 secreted in the cell culture)
[1] = test system: normally proliferating foreskin cells; test: survival of normally proliferating foreskin cells treated with medium supernatant (secreted fluid) of compound-killed cells (Example 13, Table 68); assay type: cell-based, human; settings: after 3 days
Experimental: After treating cells with the test compound at a high concentration that induces the death of most cells in both non-senescence-induced and senescence-induced cells, the cells were washed three times with PBS to remove the test compound, and replaced with fresh medium and cultured for an additional 3 hours at the time when the compound has entered into the cell but has not yet induced cell death (approximately 1 to 3 hours after compound treatment). During this additional culture, by checking with an optical microscope, etc., the medium supernatants containing secreted fluid from normally proliferating and senescent cells in which cell death was induced were obtained. The obtained medium supernatant was replaced with the medium of normally proliferating and senescent cells, respectively, and cell survival rate was measured after 3 days.

[2] = test system: normally proliferating cancer (A549) cells; test: survival of normally proliferating A549 cancer cells treated with medium supernatant of compound-killed cancer cells (Example 14, Table 70); assay type: cell-based, human
Experimental: In the same way as Examples 12 and 13, senescence of cancer (A549) cells was induced by treatment with doxorubicin or the control group (DMSO), and the cells were cultured. […] In the same manner as in Example 13, the medium supernatants comprising secreted fluid from normally proliferating and senescent cancer cells was obtained. Normally proliferating and senescent-induced cancer cells were treated with the medium supernatants.

p16, MMP3, IL6 = p16, MMP3, IL6 mRNA qRT-PCR in groin fat of obese mice given senescent cells killed by test compounds (Example 16, Table 72); assay type: in vivo, C57BL6J mice; settings: obese mice administered senescent cells whose death was induced by the test compound
Summary of the method: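 Mouse groin-fat preadipocytes made senescent with 250 nM doxorubicin for 24 h plus 21 days, killed by test compounds, and given subcutaneously (5×10^5 cells) to female C57BL6J mice. Senescent preadipocytes then given i.p., followed by 8-week high-fat diet. Groin-fat p16, MMP3 and IL6 mRNA measured by qRT-PCR as % of mice without killed-cell administration.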

[3] = frailty tests (open field, wire hanging, grip strength, muscle mass) in naturally aged mice (Example 7-7); assay type: in vivo, C57BL6J mice
Experimental: After 22-month-old female C57BL6J mice (purchased from KRIBB Laboratory Animal Resource Center) were adapted to the experimental environment for one week, the aged mice were randomized into an experimental group and a control group. 8-week-old mice that were not aged were used as controls. LX-112 was mixed with 0.5% CMC-Na solution (purchased from Sigma) and administered orally at a concentration of 70 mg/kg daily for 21 days. The control group was administered only the solution in the same volume. After drug administration was completed, the method described in each Example below was performed.
To analyze aging-related senescence in mice, activity evaluation (open field test), endurance evaluation (wire hanging test), and muscle strength and grip strength test (grip strength test) were performed. Specifically, in the open field test, the mouse was placed in a white square box and the trajectory it moved for a certain period of time was measured. The measurement results were compared by analyzing the ratio of time spent in the central area to the total time. In the wire hanging test, the time the mouse could endure hanging on a wire was measured. In the muscle strength and grip test (grip strength test), the mouse was made to hold the grip strength measuring device (purchased from Jeongdo B&P) with its front paws by holding its tail, then pulled slightly until it missed, and the force applied to the measuring device just before missing was measured. […] Table 33 calculates the amount of each evaluation after induced aging as 100% and compares it with the amount of each evaluation after treatment with LX-112.

IL6 = test: serum IL6 ELISA in doxorubicin-aged mice (Example 8-5); assay type: in vivo, C57BL6J mice; settings: doxorubicin-aged mice, LX-112 70 mg/kg oral daily 21 days
Experimental: After adapting 8-week-old male C57BL6J mice (purchased from KRIBB Laboratory Animal Resource Center) to the experimental environment for 1 week, doxorubicin, an anticancer drug, was administered intraperitoneally at a concentration of 10 mg/kg, and mice that were induced to age for more than 10 days were assigned to an experimental group and a control group. LX-112 was mixed with 0.5% CMC-Na solution (purchased from Sigma) and administered orally at a concentration of 70 mg/kg daily for 21 days. The control group was administered only the solution in the same volume. After drug administration was completed, the method described in each Example below was performed.
The amount of IL6, an aging-related inflammation secretory factor (SASP), was measured in serum collected from mice in the same manner as in Example 7-5 using an enzyme-linked immunosorbent assay (ELISA Kit, purchased from R&D Systems).

[4] = LX-112 70 mg/kg oral daily 21 days, aged untreated = 100%

SMILES | activity at 30 µM (HMGN1) [%] | Survival (%) ([1]; supernatant from compound-treated medium without cells (No Cells)) | Survival (%) ([1]; supernatant from death-induced proliferating foreskin cells (compound 30 μM)) | Survival (%) ([1]; supernatant from death-induced senescent foreskin cells (compound 30 μM)) | Survival (%) ([2]; supernatant from No Cells) | Survival (%) ([2]; supernatant from death-induced proliferating cells (LX-405 30 μM)) | Survival (%) ([2]; supernatant from death-induced senescent cells (LX-405 30 μM)) | IL6 mRNA (%) (p16, MMP3, IL6) | MMP3 mRNA (%) (p16, MMP3, IL6) | p16 mRNA (%) (p16, MMP3, IL6) | weight of overall fat tissue ([3]; LX-112) | Grip Sterenght Test Strength (%) [3, 4] | Open Field Test Time in Center (%) [3, 4] | Wire Hanging Test Time (%) [3, 4] | Muscle Mass (g) ([3]; quadriceps and gastrocnemius, LX-112 70 mg/kg oral daily 21 days) | IL6 (%) (IL6)
COC(=O)c1ccc([C@H]2c3[nH]c4ccccc4c3C[C@H](C(=O)OC)N2C(=O)CCl)cc1 [LX-405] | 310 | 99.4 (±2.4) % | 104 (±3) % | 100.2 (±5.6) % | 101.4 (±1.3) % | 98.6 (±4.8) % | 105.2 (±4.9) % | 68.7 (±9.1) % | 80.5 (±2.8) % | 72.4 (±3.9) % | – | – | – | – | – | –
O=c1c2ccccc2[se]n1CCn1[se]c2ccccc2c1=O [LX-112, 1,2-[bis(1,2-benzisoselenazolone-3(2H)-ketone)]ethane] | – | – | – | – | – | – | – | – | – | – | increased | 132 (±11) % | 121 (±9) % | 119 (±10) % | 0.7 (±0.1) g | 69.8 (±12.2) %
